Reference: ChEMBL document CHEMBL1123125, “Sulfur-interrupted 8-amino side chain analogues of 4-methyl-5-[m-(trifluoromethyl)phenoxy]primaquine as potential antimalarial agents” (1985)

Columns and labels:
Assay type in all cases: functional
[1] = tested on: Mus musculus; assay: Evaluated for number of cures against Plasmodium berghei in mice (Mus musculus) (surviving 60 days) at dose 640 mg/kg
[2] = tested on: Mus musculus; assay: Evaluated for number of cures against Plasmodium berghei in mice (Mus musculus) (surviving 60 days) at dose 40 mg/kg
[3] = tested on: Plasmodium cynomolgi; assay: Cures in Plasmodium cynomolgi infected Rhesus monkeys (Macaca mulatta) at 1.0 mg/kg dose; Cures 2 of 2
[4] = tested on: Mus musculus; assay: Evaluated for number of cures against Plasmodium berghei in mice (Mus musculus) (surviving 60 days) at dose 160 mg/kg
[5] = tested on: Plasmodium cynomolgi; assay: Cures in Plasmodium cynomolgi infected Rhesus monkeys (Macaca mulatta) at 0.1 mg/kg dose; Cured 0 of 1
[6] = tested on: Mus musculus; assay: Evaluated for number of toxic deaths occurring on day 2-5 after infection with Plasmodium berghei in mice (Mus musculus) at dose 640 mg/kg
[7] = tested on: Mus musculus; assay: Evaluated for number of cures against Plasmodium berghei in mice (Mus musculus) (surviving 60 days) at dose 20 mg/kg
[8] = tested on: Mus musculus; assay: Evaluated for number of cures against Plasmodium berghei in mice (Mus musculus) (surviving 60 days) at dose 80 mg/kg
[9] = tested on: Mus musculus; assay: Evaluated for number of cures against Plasmodium berghei in mice (Mus musculus) (surviving 60 days) at dose 10 mg/kg
[10] = tested on: Mus musculus; assay: Evaluated for number of cures against Plasmodium berghei in mice (Mus musculus) (surviving 60 days) at dose 320 mg/kg
[11] = tested on: Mus musculus; assay: Evaluated for number of cures against Plasmodium berghei in mice (Mus musculus) (surviving 60 days) at dose 5 mg/kg
[12] = tested on: Plasmodium cynomolgi; assay: Cures in Plasmodium cynomolgi infected Rhesus monkeys (Macaca mulatta) at 0.316 mg/kg dose; Cured 2 of 2
[13] = tested on: Plasmodium cynomolgi; assay: Cures in Plasmodium cynomolgi infected Rhesus monkeys (Macaca mulatta) at 1.0 mg/kg dose; Cured 1 of 2
[14] = tested on: Plasmodium cynomolgi; assay: Cures against Plasmodium cynomolgi infected Rhesus monkeys (Macaca mulatta) at 0.316 mg/kg dose; cured 0 of 2
[15] = tested on: Plasmodium cynomolgi; assay: Cures in Plasmodium cynomolgi infected Rhesus monkeys (Macaca mulatta) at 0.1 mg/kg dose; Cured 0 of 2
[16] = tested on: Mus musculus; assay: Evaluated for number of toxic deaths occurring on day 2-5 after infection with Plasmodium berghei in mice (Mus musculus) at dose 320 mg/kg
[17] = tested on: Mus musculus; assay: Evaluated for number of toxic deaths occurring on day 2-5 after infection with Plasmodium berghei in mice (Mus musculus) at dose 160 mg/kg
[18] = tested on: Mus musculus; assay: Evaluated for the change in mean survival time over controls against Plasmodium berghei in mice (Mus musculus) at dose 80 mg/kg
[19] = tested on: Mus musculus; assay: Evaluated for the change in mean survival time over controls against Plasmodium berghei in mice (Mus musculus) at dose 640 mg/kg
[20] = tested on: Plasmodium cynomolgi; assay: Relapses in Plasmodium cynomolgi infected Rhesus monkeys (Macaca mulatta) at 0.1 mg/kg dose
[21] = tested on: Mus musculus; assay: Evaluated for number of cures against Plasmodium berghei yoelii in rodents at subcutaneous dose 160 mg/kg; 5/15
[22] = tested on: Mus musculus; assay: Evaluated for the change in mean survival time over controls against Plasmodium berghei in mice (Mus musculus) at dose 320 mg/kg
[23] = tested on: Mus musculus; assay: Evaluated for number of toxic deaths against Plasmodium berghei yoelii in mice (Mus musculus) at subcutaneous dose of 40 mg/kg
[24] = tested on: Mus musculus; assay: Evaluated for number of cures against Plasmodium berghei yoelii in mice (Mus musculus) at peroral dose 40 mg/kg; 0/5; conditions: route oral
[25] = tested on: Mus musculus; assay: Evaluated for the change in mean survival time over controls against Plasmodium berghei in mice (Mus musculus) at dose 160 mg/kg
[26] = tested on: Mus musculus; assay: Evaluated for number of cures against Plasmodium berghei yoelii in mice (Mus musculus) at subcutaneous dose 40 mg/kg; 1/15
[27] = tested on: Plasmodium cynomolgi; assay: Cures against Plasmodium cynomolgi infected Rhesus monkeys (Macaca mulatta) at 1.0 mg/kg; cured 0 of 2
[28] = tested on: Mus musculus; assay: Evaluated for the change in mean survival time over controls against Plasmodium berghei in mice (Mus musculus) at dose 40 mg/kg
[29] = tested on: Plasmodium cynomolgi; assay: Number of relapses in Plasmodium cynomolgi infected Rhesus monkeys (Macaca mulatta) at 1.0 mg/kg dose
[30] = tested on: Mus musculus; assay: Evaluated for number of cures against Plasmodium berghei yoelii in rodents at peroral dose 10 mg/kg; 0/5; conditions: route oral
[31] = tested on: Mus musculus; assay: Evaluated for number of toxic deaths against Plasmodium berghei yoelii in rodents at subcutaneous dose of 160 mg/kg
[32] = tested on: Mus musculus; assay: Evaluated for number of cures against Plasmodium berghei yoelii in mice (Mus musculus) at peroral dose 160 mg/kg; Number of tested 5; conditions: route oral
[33] = tested on: Mus musculus; assay: Evaluated for number of cures against Plasmodium berghei yoelii in mice (Mus musculus) at subcutaneous dose 10 mg/kg; 0/15
[34] = tested on: Mus musculus; assay: Evaluated for the change in mean survival time over controls against Plasmodium berghei in mice (Mus musculus) at dose 20 mg/kg
[35] = tested on: Mus musculus; assay: Evaluated for number of cures against Plasmodium berghei yoelii in rodents at peroral dose 10 mg/kg; 2/20; conditions: route oral
[36] = tested on: Mus musculus; assay: Evaluated for number of cures against Plasmodium berghei yoelii in rodents at peroral dose 40 mg/kg; 7/20; conditions: route oral
[37] = tested on: Mus musculus; assay: Evaluated for number of cures against Plasmodium berghei yoelii in rodents at peroral dose 2.5 mg/kg; 0/5; conditions: route oral
[38] = tested on: Mus musculus; assay: Evaluated for number of cures against Plasmodium berghei yoelii in rodents at subcutaneous dose 2.5 mg/kg; 0/5
[39] = tested on: Plasmodium cynomolgi; assay: Number of relapses in Plasmodium cynomolgi infected Rhesus monkeys (Macaca mulatta) at 0.316 mg/kg dose
[40] = tested on: Mus musculus; assay: Evaluated for number of cures against Plasmodium berghei yoelii in mice (Mus musculus) at peroral dose 160 mg/kg; 19/20; conditions: route oral
[41] = tested on: Mus musculus; assay: Evaluated for number of cures against Plasmodium berghei yoelii in rodents at subcutaneous dose 10 mg/kg; 5/30
[42] = tested on: Mus musculus; assay: Evaluated for number of cures against Plasmodium berghei yoelii in rodents at subcutaneous dose 160 mg/kg; 8/30
[43] = tested on: Mus musculus; assay: Evaluated for number of cures against Plasmodium berghei yoelii in rodents at subcutaneous dose 40 mg/kg; 7/30

SMILES | No. of cures [1] | No. of deaths [6] | No. of cures [10] | No. of cures [13] | No. of cures [14] | No. of cures [15] | Change in MST [18] | Change in MST [19] | No. of relapses [20] | Change in MST [22] | No. of deaths [23] | Change in MST [25] | Change in MST [28] | No. of relapses [29] | No. of deaths [31] | other results
COc1cc(NC(C)CCCN)c2nccc(C)c2c1Oc1cccc(C(F)(F)F)c1 (configuration not stated) | 1 | 4 | 5 |  |  |  |  |  |  |  |  |  |  |  |  | No. of cures [2]: 5; No. of cures [3]: 2; No. of cures [4]: 5; No. of cures [5]: 0; No. of cures [7]: 5; No. of cures [8]: 5; No. of cures [9]: 3; No. of cures [11]: 1; No. of cures [12]: 2
COc1cc(NC(C)CCCN)c2ncccc2c1 (configuration not stated) [PRIMAQUINE] |  | 5 |  | 1 | 0 | 0 | 9 |  |  |  |  |  |  |  |  | No. of deaths [16]: 5; No. of deaths [17]: 2
COc1cc(NCC(C)SCCN)c2nccc(C)c2c1Oc1cccc(C(F)(F)F)c1 (configuration not stated) |  |  | 1 |  |  | 0 | 1.5 | 9.7 | 7 | 6.5 | 1 | 4.5 | 0.5 | 7 | 1 | No. of cures [21]: 5; No. of cures [24]: 0; No. of cures [26]: 1; No. of cures [27]: 0; No. of cures [30]: 0; No. of cures [32]: 0; No. of cures [33]: 0
COc1cc(NC(C)CSCCN)c2nccc(C)c2c1Oc1cccc(C(F)(F)F)c1 (configuration not stated) | 2 | 1 | 1 | 1 | 0 | 0 | 6.6 | 12.3 | 8 | 9.6 | 2 | 6.8 | 2 | 18 | 3 | Change in MST [34]: 3; No. of cures [35]: 2; No. of cures [36]: 7; No. of cures [37]: 0; No. of cures [38]: 0; No. of relapses [39]: 28; No. of cures [40]: 19; No. of cures [41]: 5; No. of cures [42]: 8; No. of cures [43]: 7
